According to patent US20230303481A1, “LONG-ACTING LOW-ADDICTION HNK DERIVATIVE AND PREPARATION METHOD THEREFOR” (SHENZHEN RUIJIAN BIOTECHNOLOGY CO., LTD, priority 2020, published 2023):
Entries after “also recorded” stand apart in the source; their conditions may differ. Counter-ions that a name gives are not always drawn.

What was measured:
[1] = Applicant's experimental studies on addiction of HNK (general statement); assay type: in vivo
mice [2] = test: Forced swimming test (FST), immobility time; assay type: in vivo; details: for course of antidepressant efficacy within 7 days: 1 hour to 7 days; for antidepressant effect: dose not given
Description: One hour before the forced swimming test (FST), the mice were transferred to the laboratory. The test was conducted under normal light condition and monitored by a digital camera. During the test, the mice were individually placed in transparent glass cylinders (28.5 cm in height, 14 cm in diameter) filled with 20 cm height of water (23±1° C.). On the first day, the mice were trained for 6 minutes and then removed from the cylinder. On the second day, the mice were administered saline, HNK, Compound I5, Compound C, and Compound D, and after different time periods, their immobility time was tested. During the last 4 minutes of the entire 6-minute swimming test, the static time was recorded through EthoVision XT (Noldus, Netherlands) of Noldus system. The static time was defined as passive floating, that is there was no other movement except the movements necessary to keep the animal’s head above the water. After every two to three tests, the water in the cylinders was replaced. After the swimming test, the mice were removed from the water and dried under an infrared lamp.
The mice were given 1 mg (A), 10 mg (B) and 30 mg (C) of HNK and Compund I5 by intragastric administration, respectively, and their immobility time was measured after 1 hour and 7 days. The percentage of immobility time is expressed as mean ± SEM. *p<0.05, **p<0.01, compared to base test. Mice of each group was N=8. Saline: saline group; I5: Compound I5 treatment group; HNK: 2R,6R-hydroxynorketamine treatment group.

mice [3] = test: Position preference (CPP) experiment, three-room system; assay type: in vivo, Male C57BL/6J mice; details: 5 mg, 10 mg, 30 mg intragastric, 6 days training, residence time in white box within 15 min
Description: (§1) Animals: Male C57BL/6J mice of 8-12 weeks old were randomly divided into groups, 10 mice in each group, with body weight of 18-22 g, fed at room temperature (22±1° C.), under humidity of (50±10)%, illumination time from 8:00 to20:00. The mice had free access to food and water, and adapted to the experimental environment for at least 2-3 days before the experiments. All experiments were conducted from 8:00 to 16:00.
1.2 CPP experiment: A three-room CPP system includes black and white boxes (25 cm × 25 cm × 30 cm) at left and right sides, separated by a middle box (10 cm × 25 cm × 30 cm). During the experiment, mice were put into the middle box and could freely move to the black and white boxes. A door with the size of 5 cm × 5 cm was arranged between the middle box and each of the black and white boxes. The experiment adopted a biased procedure, which had three stages of pre-test, training, and test stages. During the whole experiment, the environmental conditions such as light, color and smell in the boxes were guaranteed to be consistent.
Pre-test stage: On days 1-3, the spacer plates between the boxes were removed, and all mice were put into the middle box after being injected with saline subcutaneously, allowing them to move freely in the boxes for 15 min, once a day for 3 consecutive days. The residence time of the mice in the black and white boxes was respectively recorded to determine the natural preference of the mice. The mice were trained with the non-natural preference box as the companion medicine box. […]
Test stage: on day 10, the spacer plates were removed, and the mice were put into the middle box allowing to move freely. At the same time, the residence time of the mice in the white box within 15 min were recorded.
Statistical analysis: Experimental data were expressed as X±SEM. […]
Position preference was tested by a three-room system. […] After continuous training for 6 days, the test was carried out, and the residence times of the mice within 15 min in the white box were recorded. […]

mice [4] = test: Behavioral sensitization experiment (spontaneous activity measurement); assay type: in vivo, Male C57BL/6J mice; details: 5 mg, 10 mg, 30 mg intragastric once a day for 7 days, 7 days withdrawal, challenge on day 15
Description: as §1
1.1 Small animal spontaneous activity measurement: An animal spontaneous activity infrared analysis system consists of a spontaneous activity box, an infrared probe device and a data acquisition system. The size of the spontaneous activity box is 40 cm × 40 cm × 65 cm, with sound isolation and light isolation, and mounted with a ventilation device. The activity statuses of the animals were recorded by the infrared probe, and the numbers of spontaneous activities of the animals were calculated. In order to test the effect of drugs on spontaneous activities of mice, the mice were randomly divided into 4 groups with 10 mice in each group. The Groups included: vehicle, I5, C, D (5.0, 10.0, 30.0 mg/kg), mor (10 mg/kg). The mice were administrated intragastrically once a day in the morning for 7 consecutive days; after that, the drugs withdrew for 7 days (without any treatment). On the 15th day, mice in each group were given Veh and the drugs (5.0, 10.0, 30.0 mg/kg) by intragastric administration to stimulate. Spontaneous activity of the mice within 1 hour was measured immediately after administration at d1, d7 and d15.
Statistical analysis: Experimental data were expressed as X±SEM. Graphpad software was used for statistical analysis, and t-test was used for comparison between two groups. One-way ANOVA analysis was used for comparison among multiple groups, and then LSD method was used for pairwise comparison.

[5] = mice, 1 mg intragastric, measured after 1 hour and 7 days

## N[C@@]1(c2ccccc2Cl)CCC[C@@H](O)C1=O [HNK, (2R,6R)-6-hydroxydemethylketamine, reference compound]
[1]
  addiction: a certain degree of addiction
Mice [2]; general statement
  duration of efficacy after administration: basically lost activity within one week
Mice [2]; [5]
  antidepressant effect (immobility time, forced swimming): no antidepressant effect
Mice [2]; mice, 10 mg intragastric
  antidepressant effect (immobility time, forced swimming): had antidepressant effect
  course of antidepressant efficacy within 7 days: decreased rapidly within 7 days, and substantially had no effect on the 7th day
Mice [2]; mice, 30 mg
  antidepressant effect (immobility time, forced swimming): had antidepressant effect
Mice [2]; mice, 30 mg intragastric
  course of antidepressant efficacy within 7 days: decayed rapidly within 7 days, and substantially had no effect on the 7th day

## CN(C)c1ccc(C(=O)O[C@@H]2CCC[C@@](N)(c3ccccc3Cl)C2=O)cc1 [Compound I5, (2R, 6R)-6-p-dimethylaminobenzoyloxydemethylketamine dihydrochloride]
Mice [3]; dihydrochloride
  position preference effect on mice: no position preference effect; also recorded: non-position preference effect
Mice [4]; dihydrochloride
  behavioral sensitization effect on mice: no behavioral sensitization effect; also recorded: non-sensitization effect
Mice [2]; [5]
  antidepressant effect (immobility time, forced swimming): no antidepressant effect
Mice [2]; mice, 10 mg intragastric
  antidepressant effect (immobility time, forced swimming): had antidepressant effect
  course of antidepressant efficacy within 7 days: substantially did not decrease within 7 days
Mice [2]; mice, 30 mg
  antidepressant effect (immobility time, forced swimming): had antidepressant effect
Mice [2]; mice, 30 mg intragastric
  course of antidepressant efficacy within 7 days: substantially did not decrease within 7 days
Mice [2]; mice, compared with HNK-treated group, 10 mg and 30 mg groups
  antidepressant effect at the 7th day after administration (reduction in immobility time): significant antidepressant effect

## N[C@]1(c2ccccc2Cl)CCC[C@H](OC(=O)c2ccc(CN3CCOCC3)cc2)C1=O [Compound D]
Mice [3]
  position preference effect on mice: induced position preference
Mice [4]
  behavioral sensitization effect on mice: behavioral sensitizing effect; also recorded: behavioral sensitization effect
Mice [2]; mice, 30 mg
  antidepressant effect (immobility time, forced swimming): no antidepressant effect
Mice [2]; mice
  antidepressant effect: no antidepressant effect

## CN[C@@]1(c2ccccc2Cl)CCC[C@@H](OC(=O)c2ccccc2)C1=O [Compound C]
Mice [3]
  position preference effect on mice: induced position preference
Mice [4]
  behavioral sensitization effect on mice: behavioral sensitizing effect; also recorded: behavioral sensitization effect
Mice [2]; mice, 30 mg
  antidepressant effect (immobility time, forced swimming): no antidepressant effect
Mice [2]; mice
  antidepressant effect: no antidepressant effect
